pIC50: −log10 of the molar value.

This assay has as its target T1, TGF-beta receptor type-1 (Homo sapiens, UniProt P36897).
T1 sequence (P36897 whole entry): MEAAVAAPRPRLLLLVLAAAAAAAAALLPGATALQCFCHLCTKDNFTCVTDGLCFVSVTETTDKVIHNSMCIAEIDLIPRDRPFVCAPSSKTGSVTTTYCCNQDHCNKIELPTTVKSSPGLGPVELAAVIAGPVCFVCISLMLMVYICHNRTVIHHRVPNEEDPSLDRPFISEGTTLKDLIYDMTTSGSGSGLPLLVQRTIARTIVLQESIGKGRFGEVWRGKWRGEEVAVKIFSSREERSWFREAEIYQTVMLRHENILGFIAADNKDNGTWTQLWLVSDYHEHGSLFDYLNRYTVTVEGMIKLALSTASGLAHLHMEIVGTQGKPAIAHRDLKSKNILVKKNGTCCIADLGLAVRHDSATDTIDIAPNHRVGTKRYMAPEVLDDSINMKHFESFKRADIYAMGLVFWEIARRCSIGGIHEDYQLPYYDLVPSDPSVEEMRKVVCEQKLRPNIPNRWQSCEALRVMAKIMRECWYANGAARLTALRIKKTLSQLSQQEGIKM
Nature of the assay: In Vitro Assay. The procedure:
Briefly, the kinase reaction was performed by incubating 2.6 nM of the purified, commercially available human ALK5 (recombinant TGF β1 N-term GST-tagged, 80-end), a final concentration of TGFβ1 peptide 94.5 μM (Promega, T36-58) and ultra-pure ATP (Promega V915B). The ATP concentration was set at the Km value (concentration of substrate which permits the enzyme to achieve half maximal velocity (Vmax)) of ALK5 (5 μM). All reactions/incubations were performed at 25° C. Compound and ALK5 kinase were mixed and incubated for 15 mins. Reactions were initiated by addition of ATP at a final concentration in the assay of 0.83 μM. After an incubation of 150 min, the reaction was stopped, and ADP production detected with ADP-Glo kit according to manufacturer's indications. The assay was performed in 384-well format and was validated using a selection of reference compounds that was tested in 11 point concentration-response curve.
For `Clc1cccc(-c2nc3n(c2-c2ccc4ncnn4c2)CCN3)n1` [US20250270215, Example 12], the pIC50 is greater than 9.00.

Consider `Cc1cccc(-c2nc3n(c2-c2cc4cnccc4s2)CC(C(=O)O)N3)n1` (stereo not drawn) [US20250270215, Example 4], for which the pIC50 was greater than 9.00. In the case of `Cc1cccc(-c2nc3n(c2-c2ccc4nsnc4c2)CCN3)n1` [US20250270215, Example 17] it was greater than 9.00; in that of `Clc1cccc(-c2nc3n(c2-c2cc4cnccc4s2)CCN3)n1` [US20250270215, Example 13], greater than 9.00.

The compound `Fc1ccc(Cl)cc1-c1nc2n(c1-c1ccc3ncnn3c1)CCN2` [US20250270215, Example 2] showed a pIC50 greater than 9.00. In the case of `Cc1csc(-c2nc3n(c2-c2ccc4ncnn4c2)CCN3)n1` [US20250270215, Example 3] it was greater than 9.00.

Compound `Cc1cccc(-c2nc3n(c2-c2ccc4nonc4c2)CCN3)n1` [US20250270215, Example 18] showed a pIC50 greater than 9.00.

Take `Fc1ccc(Cl)cc1-c1nc2n(c1-c1cc3cnccc3s1)CCN2` [US20250270215, Example 14]: the pIC50 is greater than 9.00.

In general, pIC50 refers to the IC50 on a negative log10 scale, so that one unit is a factor of ten. Higher therefore signals a low IC50.
